Laboratory results: patent US12649980B2, “Three-dimensional surface for protein and small molecule microarrays” (The Johns Hopkins University, priority 2019, dated 2026)

Tests used:
[1] = biological target: T1, GLUT1 (Homo sapiens, UniProt P11166); test: rapafucin 3D microarray screen with GLUT1-containing cell lysate; format: binding; details: signal-to-background ratio, 3D surface, lysate of GLUT1-overexpressing HEK293T; hit if SBR > 3
T1 construct: The full-length human SLC2A1, SLC2A3, and SLC2A4 genes were PCR amplified and inserted into pLenti6M vector 2; expressed in transfected cells
T1 sequence (P11166 1-492): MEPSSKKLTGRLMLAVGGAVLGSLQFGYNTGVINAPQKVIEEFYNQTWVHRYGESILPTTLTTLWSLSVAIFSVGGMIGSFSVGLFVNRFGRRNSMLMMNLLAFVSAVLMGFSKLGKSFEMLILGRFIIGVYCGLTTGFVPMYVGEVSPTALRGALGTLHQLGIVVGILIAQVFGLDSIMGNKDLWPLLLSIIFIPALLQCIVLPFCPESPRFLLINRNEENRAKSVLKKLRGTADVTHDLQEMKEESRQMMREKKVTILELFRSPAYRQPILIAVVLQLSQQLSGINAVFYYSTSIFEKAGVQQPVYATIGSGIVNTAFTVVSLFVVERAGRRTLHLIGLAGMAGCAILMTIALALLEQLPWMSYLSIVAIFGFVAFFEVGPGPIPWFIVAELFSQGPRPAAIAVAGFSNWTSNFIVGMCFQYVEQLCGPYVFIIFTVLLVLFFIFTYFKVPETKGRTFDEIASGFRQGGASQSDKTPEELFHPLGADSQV
From the text: (§1) Once stock solutions of the rapafucin library were arrayed on the 2D or 3D surface and most of solvent carrier was evaporated, the crosslinking reaction was initiated by irradiating the surfaces with 365-nm wavelength UV light. Kawatani and Osada, Medchemcomm 2014, 5, 277-287. […] To screen for GLUT1-interacting rapafucins, GLUT1 was stably overexpressed in HEK293T cells and generated cell lysates containing detergent-solubilized recombinant GLUT1 (FIG. 10). The GLUT1-containing cell lysate was then incubated on both 2D and 3D rapafucin microarrays. After washing the slides to remove unbound proteins, the bound GLUT1 protein was detected with anti-GLUT1 antibodies, followed by visualization with Cy5-labeled secondary antibodies using a microarray scanner. Rapafucins were scored as positive hits when the corresponding SBR was greater than 3. Based on this criterion, a total of 17 rapafucin hits and one positive control BAY-876, a specific GLUT1 inhibitor, Siebeneicher et al., ChemMedChem 2016, 11, 2261-2271, were identified on the 3D rapafucin microarray. In contrast, only one hit (WL13-F11, also among the 17 hits identified from the 3D rapafucin microarray) was identified on the 2D rapafucin microarray (Table 1, FIG. 11).
The amine substrates (Arrayit, SMM) were immerged in a mixture of 2-bromoisobutyryl bromide (BIBB, 0.1 mM, as initiator) and propionyl bromide (10 mM, as horizontal spacer) with triethylamine (15 mM) in DCM for 4 hours. A degassed polymerization reaction mixture, containing copper (II) chloride dihydrate (CuCl2, 4 mmol), 2,2′-bipyridine (2 mmol), 75 mmol monomers mixture of 2-(dimethylamino)ethyl methacrylate (DMAEMA) and poly(ethylene glycol) methacrylate (PEGMA Mn 360) in 500 mL Milli-Q/MeOH, was mixed with freshly made ascorbic acid (4 mmol). The mixture was applied to 50 slides for 6 hours under the argon atmosphere for the surface-initiated polymerization. A gradient ratio of PEGMA and DMAEMA was set, including 10:0, 8:2, 5:5, 2:8 and 0:10 for an optimization purpose. The terminals of the brushes were further functionalized by N,N′-disuccinimidyl carbonate (DSC, 10 mM) and 4-dimethylaminopyridine (DMAP,10 mM) in DMF overnight to form succinimidyl carbonate intermediate, and, successively, diazirine linker 1 (10 mM) and N,Ndiisopropylethylamine (DIPEA, 50 mM) in DMF for 2 hours to couple the photoaffinity linker in dark at room temperature. At the end, the substrates were immerged in a 50 mM ethanolamine in DMF to block the residual carboxylic moiety. The slides were thoroughly washed by DMF, EtOH and DCM and dried in a fuming cupboard and ready for spotting.
10 mM of rapafucins in DMSO from the library were spotted onto the slides with a high-precision microarrayer (Nanoprint, Arrayit, CA) for a desired pattern in dark, which was loaded with 16 100-μm diameter micro-spotting pins. The pin heads were thoroughly washed and sonicated in ethanol and dried for 4 times under a compassed air between each sample loading. After overnight evaporation, the slides were exposed to 365-nm wavelength UV irradiation for 4 J/cm^2 by CL-1000L UV crosslinker (UVP, CA) for rapafucins covalent immobilization. The slides were ultrasonic cleaned successively in DCM, MeOH and Milli-Q water and stored in a −20° C. freezer.
(§2) In the optimization experiments, the slides were incubated with 50 nM purified recombinant FKBP12 for 1 hour, while in the GLUT1 screening, 10 mg/mL of cell lysate containing DDM-solubilized GLUT1 from GLUT1 overexpressed HEK293T was incubated for 1 hour. Successively, primary antibody and CY5 labeled secondary antibody were added for 1 hour. The chips were washed in buffer A for 5 mins 3 times after the sample and antibodies incubation. After centrifugation, the dried chips were scanned by a microarray scanner (Genepix, US) at 635-nm wavelength. The final result was analyzed by GenePix software.

[2] = biological target: T1, GLUT1; test: rapafucin 2D microarray screen with GLUT1-containing cell lysate; format: binding; details: signal-to-background ratio, 2D surface, same lysate and conditions
From the text: as §1, §2

[3] = system: A549 cells; test: [3H]-2DG uptake assay in A549 cells; format: cell-based, human; details: 10 min incubation with compound, mean ± s.d., n = 3
Method: To determine which of the 17 rapafucin hits inhibited the transporter activity of GLUT1, an orthogonal glucose uptake assay using 2-deoxy-D-[3H] glucose ([3H]-2DG), a nonhydrolyzable, radioactive glucose analog, was employed. Each hit was separately incubated with A549 cells for 10 min before the amount of [3H]-2DG taken up by the cells was measured using scintillation counting. […] The effect of JW11-D2 on uptake of [3H]-2DG in human red blood cells that exclusively express GLUT1 was then determined. Helgerson and Carruthers, J. Biol. Chem. 1987, 262, 5464-5475. […] To further improve the potency of JW11-D2, a structure-activity relationship (SAR) study was performed by synthesizing 21 new analogs of JW11-D2 using different amino acid building blocks.
(§3) The inhibitory activity of compounds on glucose transport was analyzed by measuring the cell uptake of [3H]-2DG as previously described. Ulanovskaya et al., Chem. Biol. 2011, 18, 222-230. Briefly, cells were washed twice and incubated in low-glucose medium for 10 min. Cells were added drugs and incubated for another 10 min before adding [3H]-2DG. After 10 min incubation with [3H]-2DG, cells were washed twice and lysed with 0.2 N NaOH plus 0.2% SDS. The cell lysate was transferred to a new tube containing 1 mL of optiphase supermix. Glucose uptake was quantified with a scintillation counter.

[4] = system: DLD1 WT; test: [3H]-2DG uptake in DLD1 WT cells; format: cell-based
Method: as §3

[5] = system: DLD1 GLUT1 KO; test: [3H]-2DG uptake in DLD1 GLUT1 knockout cells; format: cell-based; details: for inhibitory activity in GLUT1 knock out cells: DLD-1 GLUT1 knock out versus wild type
Method: as §3

[6] = biological target: T1, GLUT1; test: biotin-RgA pull-down and biotin probe competition binding assay, GLUT1; details: lysate of HEK293T overexpressing GLUT1, Western blot
Method: Next, the binding affinity of RgA for GLUT1 was determined using a RgA biotin pull-down assay. A biotin-RgA conjugate was synthesized by tethering the biotin moiety through carbon:carbon double bond in the FKBP-binding domain of RgA (FIG. 13). […] Using the biotin-RgA conjugate, a pulldown experiment with cell lysate containing detergent-solubilized GLUT1 protein prepared from HEK293T cells overexpressing GLUT1 was performed, followed by Western blot analysis with a GLUT1-specific antibody.
The estimation of Kd value for RgA was determined with the biotin probe competition binding assay. […] After western blot, band intensities were quantified by densitometry analysis using Image J software. The assay was repeated three times. GraphPad Prism (v4.03) software was used to determine apparent Kd value for RgA using a nonlinear regression.

[7] = biological target: GLUT3 (Homo sapiens, UniProt P11169); test: biotin-RgA pull-down assay, GLUT3; details: lysate of HEK293T overexpressing GLUT3, Western blot
Sequence of GLUT3 (P11169 whole entry): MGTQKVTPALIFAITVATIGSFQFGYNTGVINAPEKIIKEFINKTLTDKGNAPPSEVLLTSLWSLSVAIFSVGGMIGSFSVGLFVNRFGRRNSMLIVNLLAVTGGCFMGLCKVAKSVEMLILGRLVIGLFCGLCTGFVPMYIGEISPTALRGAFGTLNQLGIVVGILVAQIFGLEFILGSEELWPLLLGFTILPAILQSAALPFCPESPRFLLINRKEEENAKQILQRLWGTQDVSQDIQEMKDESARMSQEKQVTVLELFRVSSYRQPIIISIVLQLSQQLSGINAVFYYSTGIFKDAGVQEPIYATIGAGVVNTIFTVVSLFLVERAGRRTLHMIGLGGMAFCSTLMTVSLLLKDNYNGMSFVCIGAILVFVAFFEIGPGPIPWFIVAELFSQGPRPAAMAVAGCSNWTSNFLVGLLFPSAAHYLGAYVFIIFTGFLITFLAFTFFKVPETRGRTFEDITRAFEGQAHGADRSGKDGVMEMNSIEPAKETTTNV
Method: (§4) It was further determined whether RgA is specific for GLUT1 using a pair of isogenic cell lines.
(§5) GLUT1 or other isoforms overexpression HEK293T cells were washed once in buffer A (10 mM Tris-HCl, 150 mM KCl, 5 mM MgCl2, 1 mM EGTA, pH 7.4). To extract GLUT1 or isoforms protein, cells were mixed in buffer C (10 mM Tris-HCl, 150 mM KCl, 5 mM MgCl2, 1% DDM, 5% glycerol, 1 mM EGTA, protease inhibitor, pH 7.4) and incubated on ice for 1 h with frequent mixing. The supernatant was collected by centrifugation at 17,000 g for 10 min at 4° C., and then diluted four-fold in buffer A plus 5% glycerol to reduce the concentration of DDM. The diluted supernatant was quantified by protein assay kit and pre-incubated with streptavidin agarose beads at 4° C. for 30 min to remove the endogenous streptavidin-binding proteins. The supernatant was collected by centrifugation at 2,000 rpm for 1 min at 4° C., and diluted to 10 mg/mL for pull-down experiment. For a typical biotin pull- down reaction, 300 μL of supernatant was pretreated with competitor or equal volume of DMSO (as noted hereinabove) for 30 min, before the addition of RgA biotin probe or DMSO (as noted hereinabove). After incubation at 4° C. for 1 h with frequent mixing, 30 μL of streptavidin agarose beads in buffer A was added, and incubation was continued for 2 h. […]

[8] = biological target: GLUT4 (Homo sapiens, UniProt P14672); test: biotin-RgA pull-down assay, GLUT4; details: lysate of HEK293T overexpressing GLUT4, Western blot
Sequence of GLUT4 (P14672 whole entry): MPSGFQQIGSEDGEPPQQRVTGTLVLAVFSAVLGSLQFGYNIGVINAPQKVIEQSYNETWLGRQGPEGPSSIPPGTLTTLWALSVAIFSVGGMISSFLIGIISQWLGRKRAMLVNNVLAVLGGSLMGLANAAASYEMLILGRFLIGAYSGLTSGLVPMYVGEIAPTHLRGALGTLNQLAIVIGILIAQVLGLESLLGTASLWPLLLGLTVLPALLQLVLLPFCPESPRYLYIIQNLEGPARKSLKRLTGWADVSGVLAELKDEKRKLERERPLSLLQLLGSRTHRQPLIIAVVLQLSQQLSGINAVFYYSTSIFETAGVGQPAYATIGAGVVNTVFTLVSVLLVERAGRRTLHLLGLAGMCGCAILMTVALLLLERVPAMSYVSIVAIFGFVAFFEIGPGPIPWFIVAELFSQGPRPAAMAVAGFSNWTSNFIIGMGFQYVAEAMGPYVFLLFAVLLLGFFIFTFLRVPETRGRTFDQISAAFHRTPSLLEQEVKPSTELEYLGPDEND
Method: as §4, §5

[9] = system: glutathione S-transferases; details: Yamada and Kaplowitz 1980; cited from earlier work

SMILES	3D SBR [1]	2D SBR [2]	IC50 [3]	also measured
COc1ccc(CC[C@H]2OC(=O)[C@@H]3CCCCN3C(=O)C(=O)C(C)(C)COC(=O)C=CCCN(C)C(=O)[C@H](Cc3ccccc3)N(C)C(=O)CCNC(=O)CN(C)C(=O)[C@H](Cc3ccc(O)cc3)NC(=O)COc3cccc2c3)cc1OC [WL05-D8]	6.4 ± 1.8	<3.0	> 3 µM	
CCC(C)C1C(=O)NC(Cc2ccccc2)C(=O)N(C)CCC=CC(=O)OCC(C)(C)C(=O)C(=O)N2CCCCC2C(=O)OC(CCc2ccc(OC)c(OC)c2)c2cccc(c2)OCC(=O)N(C)CC(=O)NC(Cc2ccc(F)cc2)C(=O)N1C (stereo not shown) [HP05-F5]	7.9 ± 2.6	<3.0	> 3 µM	
C=C1[C@@H](C)[C@H]2[C@H](Cc3ccccc3)NC(=O)[C@]23OC(=O)/C=C/[C@H](O)CCC[C@@H](C)C/C=C/[C@H]3[C@@H]1O [Cytochalasin B, cytochalasin B]				EC50 ([4]; DLD1 wild type): 0.545 ± 0.0405 µM; EC50 ([5]; DLD1 GLUT1 knockout): 0.39 ± 0.0327 µM; inhibitory activity in GLUT1 knock out cells [5]: maintained its inhibitory activity
CCCC[C@H]1C(=O)N[C@@H](Cc2ccccc2)C(=O)N(C)CCC=CC(=O)OCC(C)(C)C(=O)C(=O)N2CCCC[C@H]2C(=O)O[C@H](CCc2ccc(OC)c(OC)c2)c2cccc(c2)NC(=O)CCC(=O)N(C)[C@H](Cc2ccccc2)C(=O)N[C@@H](Cc2ccc(F)cc2)C(=O)N1C [HP05-A9]	3.4 ± 1.4	<3.0	> 3 µM	
COc1ccc(CC[C@H]2OC(=O)[C@@H]3CCCCN3C(=O)C(=O)C(C)(C)COC(=O)C=CCCN(C)C(=O)CNC(=O)CN(C)C(=O)[C@H](Cc3ccc(O)cc3)NC(=O)[C@@H](Cc3ccccc3)N(C)C(=O)COc3cccc2c3)cc1OC [WL03-G11]	5.1 ± 0.7	<3.0	> 3 µM	
CCC(C)C1C(=O)NCC(=O)N(C)CCC(SCCCSCC(=O)NCCOCCOCCNC(=O)CCCCC2SCC3NC(=O)NC32)CC(=O)OCC(C)(C)C(=O)C(=O)N2CCCCC2C(=O)OC(CCc2ccc(OC)c(OC)c2)c2cccc(c2)NC(=O)CCC(=O)N(C)C(CC(C)C)C(=O)NC(Cc2ccccc2)C(=O)N1C (stereo not shown) [biotin-RgA]			0.211 µM	pulldown of GLUT1 [6]: capable of pulling down GLUT1; pulldown of GLUT3 [7]: able to pull down both GLUT3 and GLUT4; pulldown of GLUT4 [8]: able to pull down both GLUT3 and GLUT4
C=C(CC)C(=O)c1ccc(OCC(=O)O)c(Cl)c1Cl [ethacrynic acid]				proportion of bound ethacrynic acid that was bound covalently [9]: 13.5%
COc1ccc(CC[C@H]2OC(=O)[C@@H]3CCCCN3C(=O)C(=O)C(C)(C)COC(=O)C=CCCN(C)C(=O)[C@H]3CCCN3C(=O)[C@H](C(C)C)N(C)C(=O)[C@H](Cc3ccc([N+](=O)[O-])cc3)NC(=O)CN(C)C(=O)COc3cccc2c3)cc1OC [WL12-G5]	8.8 ± 2.0	<3.0	> 3 µM	
CCCC[C@H]1C(=O)N2CCC[C@@H]2C(=O)N(C)CCC=CC(=O)OCC(C)(C)C(=O)C(=O)N2CCCC[C@H]2C(=O)O[C@H](CCc2ccc(OC)c(OC)c2)c2cccc(c2)OCC(=O)N(C)CC(=O)N[C@H](Cc2ccc(NC(=O)OC(C)(C)C)cc2)C(=O)N1C [WL11-E7]	4.8 ± 0.5	<3.0	> 3 µM	
CCCC[C@H]1C(=O)N2CCC[C@@H]2C(=O)N(C)CCC=CC(=O)OCC(C)(C)C(=O)C(=O)N2CCCC[C@H]2C(=O)O[C@H](CCc2ccc(OC)c(OC)c2)c2cncc(c2)OCC(=O)N(C)CC(=O)N[C@@H](Cc2ccccc2)C(=O)N1C [WL11-G9]	3.9 ± 0.3	<3.0	> 3 µM	
Cc1c(NC(=O)c2cc(C(N)=O)nc3cc(F)ccc23)c(C(F)(F)F)nn1Cc1ccc(C#N)cc1 [BAY-876]	3.2 ± 0.74	<3.0		EC50 ([4]; Homo sapiens, DLD-1, DLD1 wild type): 0.008 ± 0.0011 µM; inhibitory activity in GLUT1 knock out cells [5]: lost its inhibitory activity; EC50 ([5]; Homo sapiens, DLD-1, DLD1 GLUT1 knockout): > 1 µM
